In patent US9073941B2, “Compounds and methods for treating tuberculosis infection” (Academia Sinica, priority 2010, dated 2015):

biological target: lipoamide dehydrogenase (Lpd) (Mycobacterium tuberculosis (strain ATCC 25618 / H37Rv), UniProt P9WHH9); assay: Lipoamide Dehydrogenase (Lpd) Inhibition Assay; type: biochemical; settings: not given

Structure (SMILES)	IC50 [nM]
COc1ccc(NC(=O)CN(C)S(=O)(=O)c2cc(Br)cnc2N)cc1Cl [Compound 503]	700 ± 80
CC(C)c1ccc(NC(=O)C2CCN(S(=O)(=O)c3cn(C(C)C)cn3)CC2)cc1 [Compound 509]	2870 ± 520
CC(C)n1cnc(S(=O)(=O)N2CCC(C(=O)NCc3cccs3)CC2)c1 [Compound 549]	3420 ± 1330
CC(C)n1cnc(S(=O)(=O)N2CCC(C(=O)NCc3ccc(F)cc3)CC2)c1 [Compound 557]	3550 ± 1170
Cc1ccc(NC(=O)C2CCN(S(=O)(=O)c3cn(C(C)C)cn3)CC2)cc1F [Compound 532]	2850 ± 510
CCOc1ccc(NC(=O)C2CCN(S(=O)(=O)c3cn(C(C)C)cn3)CC2)cc1 [Compound 520]	2170 ± 370
CN(CC(=O)Nc1ccc(F)cc1)S(=O)(=O)c1cc(Br)cnc1N [Compound 504]	4300 ± 1210
COc1cc(Cl)c(NC(=O)C2CCN(S(=O)(=O)c3cn(C(C)C)cn3)CC2)c(OC)c1 [Compound 552]	2870 ± 670
CCOc1ccc(NC(=O)C2CCN(S(=O)(=O)c3cn(CC)cn3)CC2)cc1 [Compound 543]	3970 ± 1130
CC(C)n1cnc(S(=O)(=O)N2CCC(C(=O)Nc3ccc4c(c3)OCO4)CC2)c1 [Compound 530]	2070 ± 710
CC(C)n1cnc(S(=O)(=O)N2CCC(C(=O)NCc3ccccc3)CC2)c1 [Compound 536]	2690 ± 800

same assay, conditions: concentration required for 50% inhibition of LPD activity; DTNB detection, OD405 nm

Structure (SMILES)	IC50 [nM]
CCOc1ccc2nc(NC(=O)C3CCN(S(=O)(=O)c4cn(CC)cn4)CC3)sc2c1 [Compound 562]	3500 ± 470
Oc1ccc(NCc2cc3cc4c(cc3nc2O)OCO4)cc1 [Compound 804]	4670 ± 570
COCCN(C(=O)c1cccs1)c1nc2c(s1)CCc1c-2cnn1C [Compound 1101]	1620 ± 240
Cc1cccc(NC(=O)C2CCN(S(=O)(=O)c3cn(C(C)C)cn3)CC2)c1 [Compound 508]	2610 ± 820
COc1ccc2cc(CNc3ccc(O)cc3)c(O)nc2c1 [Compound 801]	2250 ± 160
Cc1cc(NC(=O)C2CCN(S(=O)(=O)c3cn(C(C)C)cn3)CC2)ccc1Br [Compound 531]	4110 ± 1590
CC(C)n1cnc(S(=O)(=O)N2CCC(C(=O)Nc3ccccc3F)CC2)c1 [Compound 524]	2670 ± 650
COc1ccc(NC(=O)CN(C)S(=O)(=O)c2cc(Br)cnc2N)cc1OC [Compound 502]	840 ± 130
CCCN(C(=O)c1ccc(COC)o1)c1nc2c(s1)CCc1c-2cnn1C [Compound 1102]	3160 ± 430
CC(C)n1cnc(S(=O)(=O)N2CCC(C(=O)Nc3cccc(F)c3)CC2)c1 [Compound 517]	3610 ± 980
CCn1cnc(S(=O)(=O)N2CCC(C(=O)Nc3nc4ccc(OC)cc4s3)CC2)c1 [Compound 563]	3020 ± 870
Oc1ccc(NCc2cc3ccccc3nc2O)cc1 [Compound 803]	1620 ± 180
CC(C)n1cnc(S(=O)(=O)N2CCC(C(=O)NCc3ccc(Cl)cc3)CC2)c1 [Compound 556]	3750 ± 1010
CCn1cnc(S(=O)(=O)N2CCC(C(=O)Nc3cccc(-c4ccno4)c3)CC2)c1 [Compound 553]	2680 ± 990
Cn1c(=O)nc2[nH]nc(/C=C/c3ccccc3)nc-2c1=O [Compound 622]	2160 ± 260
Cc1ccc2nc(NC(=O)C3CCN(S(=O)(=O)c4cn(C(C)C)cn4)CC3)sc2c1 [Compound 542]	5060 ± 1090
CC(C)c1ccc(NC(=O)CN(C)S(=O)(=O)c2cc(Br)cnc2N)cc1 [Compound 505]	840 ± 110
Cc1ccc(C)c(NC(=O)C2CCN(S(=O)(=O)c3cn(C(C)C)cn3)CC2)c1 [Compound 529]	3920 ± 2470
CC(C)n1cnc(S(=O)(=O)N2CCC(C(=O)Nc3ccc(Cl)cc3)CC2)c1 [Compound 522]	2940 ± 720
COc1ccc(NC(=O)C2CCN(S(=O)(=O)c3cn(C(C)C)cn3)CC2)cc1Cl [Compound 534]	1690 ± 380
COc1ccc(CCNC(=O)C2CCN(S(=O)(=O)c3cn(C(C)C)cn3)CC2)cc1OC [Compound 564]	2220 ± 520
CCOc1ccccc1CNC(=O)C1CCN(S(=O)(=O)c2cn(C(C)C)cn2)CC1 [Compound 554]	3420 ± 880
CC(C)n1cnc(S(=O)(=O)N2CCC(C(=O)NC3CC3)CC2)c1 [Compound 559]	2990 ± 1390
COc1ccc(NC(=O)C2CCN(S(=O)(=O)c3cn(C(C)C)cn3)CC2)c(OC)c1 [Compound 537]	3400 ± 1600
Cc1ccc(NC(=O)C2CCN(S(=O)(=O)c3cn(C(C)C)cn3)CC2)cc1N(C)C [Compound 526]	2790 ± 720

Structure (SMILES)	IC50 [nM]
COC1CCCC(C(=O)N(CC2CCCO2)c2nc3c(s2)CCc2c-3cnn2C)C1 (stereo not shown) [Compound 1107]	3220 ± 500
CCc1ccc(NC(=O)C2CCN(S(=O)(=O)c3cn(C(C)C)cn3)CC2)cc1 [Compound 512]	2900 ± 710
CCOc1ccc2nc(NC(=O)C3CCN(S(=O)(=O)c4cn(C(C)C)cn4)CC3)sc2c1 [Compound 550]	2130 ± 240
CCc1cccc(NC(=O)C2CCN(S(=O)(=O)c3cn(C(C)C)cn3)CC2)c1 [Compound 511]	2550 ± 790
CN(C(=O)c1ccc(Cn2cccn2)o1)c1nc2c(s1)CCc1c-2cnn1C [Compound 1105]	3640 ± 510
COc1cccc(NC(=O)C2CCN(S(=O)(=O)c3cn(C(C)C)cn3)CC2)c1 [Compound 516]	2460 ± 760
Cc1ccc(CNC(=O)CN(C)S(=O)(=O)c2cc(Br)cnc2N)cc1 [Compound 506]	3310 ± 490
CCn1cnc(S(=O)(=O)N2CCC(C(=O)NCCc3nc4cc(C)ccc4[nH]3)CC2)c1 [Compound 566]	3910 ± 790
CCn1cnc(S(=O)(=O)N2CCC(C(=O)Nc3ccc(C)c(Cl)c3)CC2)c1 [Compound 544]	4550 ± 1270
CC(C)n1cnc(S(=O)(=O)N2CCC(C(=O)Nc3ccccc3)CC2)c1 [Compound 507]	2770 ± 690
CCn1cnc(S(=O)(=O)N2CCC(C(=O)Nc3ccc(OC)c(Cl)c3)CC2)c1 [Compound 548]	2350 ± 520
CC(C)n1cnc(S(=O)(=O)N2CCC(C(=O)NCCCc3ccccc3)CC2)c1 [Compound 547]	2670 ± 600
CCN(C(=O)C1CCCO1)c1nc2c(s1)CCc1c-2cnn1C (stereo not shown) [Compound 1108]	3760 ± 190
CCn1cnc(S(=O)(=O)N2CCC(C(=O)Nc3ccc(OC)cc3)CC2)c1 [Compound 541]	3310 ± 1220
CCOc1ccc2nc(O)c(CNc3ccc4[nH]ncc4c3)cc2c1 [Compound 807]	4540 ± 770
COc1ccc(NC(=O)C2CCN(S(=O)(=O)c3cn(C(C)C)cn3)CC2)cc1 [Compound 521]	2310 ± 360
CCSc1nnc(NC(=O)C2CCN(S(=O)(=O)c3cn(CC)cn3)CC2)s1 [Compound 565]	3060 ± 470
CC(C)n1cnc(S(=O)(=O)N2CCC(C(=O)Nc3cccc(Br)c3)CC2)c1 [Compound 519]	2760 ± 590
CC(C)n1cnc(S(=O)(=O)N2CCC(C(=O)Nc3ccc(F)c(Cl)c3)CC2)c1 [Compound 527]	3130 ± 790
CCOc1ccc(CNC(=O)C2CCN(S(=O)(=O)c3cn(C(C)C)cn3)CC2)cc1OC [Compound 561]	3020 ± 1780
CC(C)n1cnc(S(=O)(=O)N2CCC(C(=O)Nc3ccc4c(c3)OCCO4)CC2)c1 [Compound 523]	1600 ± 480
CC(C)n1cnc(S(=O)(=O)N2CCC(C(=O)Nc3ccc(Br)cc3F)CC2)c1 [Compound 538]	2540 ± 570
Cc1cc(C)cc(NC(=O)C2CCN(S(=O)(=O)c3cn(C(C)C)cn3)CC2)c1 [Compound 514]	2670 ± 570
Cc1ccc(NC(=O)C2CCN(S(=O)(=O)c3cn(C(C)C)cn3)CC2)cc1Cl [Compound 533]	2640 ± 190
CSc1cccc(NC(=O)C2CCN(S(=O)(=O)c3cn(C(C)C)cn3)CC2)c1 [Compound 515]	4810 ± 840
